Patent US8173638B2 (Boehringer Ingelheim International GmbH, priority 2006, dated 2012)

Target: T1, human CB2R (Homo sapiens, UniProt P34972)
T1 construct: host or cells: CHO cells
Experiment: CB2R mediated modulation of cAMP synthesis
Type: cell-based
Conditions: for agonistic activity: found through the use of the described assays (CB2 agonists), qualitative statement; for Emax: 0.5 h, CHO cells expressing human CB2R, cAMP inhibited by 1 uM CP55940 defined as 100%, read-out: Agonist Efficacy (%); for EC50: read-out: hCB2 cAMP EC50
Summary of the method: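 Forskolin (10 uM)-driven cAMP in human CB2R-expressing CHO cells, read with DiscoverX-XS kit after 30 min compound exposure at 37 °C, 1 mM IBMX, 0.25% BSA. 100% defined as forskolin cAMP relative to 1 uM CP55940 inhibition. Agonist EC50 via four-parameter logistic model.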

T1 sequence (P34972 whole entry): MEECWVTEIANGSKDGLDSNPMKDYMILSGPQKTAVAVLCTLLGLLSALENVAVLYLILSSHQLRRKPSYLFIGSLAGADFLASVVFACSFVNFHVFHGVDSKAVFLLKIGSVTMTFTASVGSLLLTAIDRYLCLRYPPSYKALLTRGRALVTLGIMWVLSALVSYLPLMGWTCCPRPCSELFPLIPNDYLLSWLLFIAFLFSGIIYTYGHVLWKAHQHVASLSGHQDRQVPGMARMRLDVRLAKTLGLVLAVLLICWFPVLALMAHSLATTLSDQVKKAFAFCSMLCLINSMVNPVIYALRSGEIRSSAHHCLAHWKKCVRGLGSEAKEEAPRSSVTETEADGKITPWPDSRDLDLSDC

Row | Structure (SMILES) | agonistic activity | Emax [%] | EC50 [nM]
1 | CC(C)c1ccc(NC(=O)N2CCCN(C(=O)c3ccccc3)CC2)cc1 [4-Benzoyl-[1,4]diazepane-1-carboxylic acid (4-isopropyl-phenyl)-amide] | agonistic activity | – | –
2 | CCCC(=O)c1ccc(NC(=O)N2CCCN(C(=O)CC3CCCC3)CC2)cc1 [4-(2-Cyclopentyl-acetyl)-[1,4]diazepane-1-carboxylic acid (4-butyryl-phenyl)-amide] | agonistic activity | – | –
3 | CC(C)(C)c1cc(NC(=O)N2CCCN(C(=O)N3CCS(=O)(=O)CC3)CC2)on1 [Compound 211, 4-(1,1-Dioxo-1 λ^6-thiomorpholine-4-carbonyl)-[1,4]diazepane-1-carboxylic acid (3-tert-butyl-isoxazol-5-yl)-amide] | – | 100 | 95
4 | O=C(COc1ccccc1)N1CCCN(C(=O)Nc2ccc3ccccc3c2)CC1 [4-(2-Phenoxy-acetyl)-[1,4]diazepane-1-carboxylic acid naphthalen-2-ylamide] | agonistic activity | – | –
5 | O=C(CC1CCCC1)N1CCCN(C(=O)Nc2ccc(Cl)c(Cl)c2)CC1 [4-(2-Cyclopentyl-acetyl)-[1,4]diazepane-1-carboxylic acid (3,4-dichloro-phenyl)-amide] | agonistic activity | – | –
6 | CC(C)(C)c1cc(NC(=O)N2CCCN(C(=O)C3CCOCC3)CC2)[nH]n1 [4-(Tetrahydro-pyran-4-carbonyl)-[1,4]diazepane-1-carboxylic acid (5-tert-butyl-2H-pyrazol-3-yl)-amide] | agonistic activity | – | –
7 | CC(C)(C)c1cnc(NC(=O)N2CCCN(C(=O)C3CCC(O)CC3)CC2)s1 (centres unmarked) [4-(4-Hydroxy-cyclohexanecarbonyl)-[1,4]diazepane-1-carboxylic acid (5-tert-butyl-thiazol-2-yl)-amide] | agonistic activity | – | –
8 | Cc1nc(NC(=O)N2CCCN(C(=O)C3CCC(F)(F)CC3)CC2)sc1C(C)(C)C [4-(4,4-Difluoro-cyclohexanecarbonyl)-[1,4]diazepane-1-carboxylic acid (5-tert-butyl-4-methyl-thiazol-2-yl)-amide] | agonistic activity | – | –
9 | CC(C)(C)c1cccc(NC(=O)N2CCCN(C(=O)N3CCS(=O)(=O)CC3)CC2)c1 [4-(1,1-Dioxo-1λ^6-thiomorpholine-4-carbonyl)-[1,4]diazepane-1-carboxylic acid (3-tert-butyl-phenyl)-amide] | agonistic activity | – | –
10 | CC(C)c1ccc(NC(=S)N2CCCN(C(=O)CC3CCCC3)CC2)cc1 [4-(2-Cyclopentyl-acetyl)-[1,4]diazepane-1-carbothioic acid (4-isopropyl-phenyl)-amide] | agonistic activity | – | –
11 | O=C(CC1CCCCC1)N1CCCN(C(=O)Nc2ccc3ccccc3c2)CC1 [4-(2-Cyclohexyl-acetyl)-[1,4]diazepane-1-carboxylic acid (2-naphthyl)-amide] | agonistic activity | – | –
12 | CCCCCc1ccc(NC(=O)N2CCCN(C(=O)CC3CCOCC3)CC2)cc1 [4-(2-Tetrahydro-pyran-4-yl-acetyl)-[1,4]diazepane-1-carboxylic acid (4-pentyl-phenyl)-amide] | agonistic activity | – | –
13 | CC(C)c1ccc(NC(=O)N2CCCN(C(=O)C(C)(C)C)CC2)cc1 [4-pivaloyl-[1,4]diazepane-1-carboxylic acid (4-isopropyl-phenyl)-amide] | agonistic activity | – | –
14 | CCCCc1ccc(NC(=O)N2CCCN(C(=O)CCC3CC3)CC2)cc1 [4-(3-Cyclopropyl-propionyl)-[1,4]diazepane-1-carboxylic acid (4-butyl-phenyl)-amide] | agonistic activity | – | –
15 | Cc1nc(NC(=O)N2CCCN(C(=O)C3CCOCC3)CC2)sc1C [4-(Tetrahydro-pyran-4-carbonyl)-[1,4]diazepane-1-carboxylic acid (4,5-dimethyl-thiazol-2-yl)-amide] | agonistic activity | – | –
16 | CC(C)(C)c1cnc(NC(=O)N2CCCN(C(=O)C3CCC(O)CC3)CC2)s1 (centres unmarked) [Compound 173, 4-(4-Hydroxy-cyclohexanecarbonyl)-[1,4]diazepane-1-carboxylic acid (5-tert-butyl-thiazol-2-yl)-amide] | – | 111 | 17
17 | O=C(Nc1nc2c(s1)CCCC2)N1CCCN(C(=O)c2ccc(Cl)cc2)CC1 [Compound 168, 4-(4-Chloro-benzoyl)-[1,4]diazepane-1-carboxylic acid (4,5,6,7-tetrahydro-benzothiazol-2-yl)-amide] | – | 101 | 3.6
18 | O=C(Nc1nc(C2CC2)cs1)N1CCCN(C(=O)c2ccc(Cl)cc2)CC1 [4-(4-Chloro-benzoyl)-[1,4]diazepane-1-carboxylic acid (4-cyclopropyl-thiazol-2-yl)-amide] | agonistic activity | – | –
19 | CC(C)(C)c1cc(NC(=O)N2CCCN(C(=O)CN3CCSCC3)CC2)no1 [Compound 227, 4-(2-Thiomorpholin-4-yl-acetyl)-[1,4]diazepane-1-carboxylic acid (5-tert-butyl-isoxazol-3-yl)-amide] | – | 102 | 9.6
20 | CC(C)CC(=O)N1CCCN(C(=O)Nc2cc(C(C)(C)C)on2)CC1 [4-(3-Methyl-butyryl)-[1,4]diazepane-1-carboxylic acid (5-tert-butyl-isoxazol-3-yl)-amide] | agonistic activity | – | –
21 | CCC(C)c1ccc(NC(=O)N2CCCN(C(=O)CC3CCOCC3)CC2)cc1 (centres unmarked) [4-(2-Tetrahydro-pyran-4-yl-acetyl)-[1,4]diazepane-1-carboxylic acid (4-sec-butyl-phenyl)-amide] | agonistic activity | – | –
22 | CCCCc1ccc(NC(=O)N2CCCN(C(=O)CC3CCCC3)CC2)cc1 [Example 11] | – | 65 | 74
23 | O=C(CN1CCCCC1)N1CCCN(C(=O)Nc2ccc3ccccc3c2)CC1 [4-(2-Piperidin-1-yl-acetyl)-[1,4]diazepane-1-carboxylic acid naphthalen-2-ylamide] | agonistic activity | – | –
24 | O=C(Nc1ccc(SC(F)(F)F)cc1)N1CCCN(C(=O)C2CCCCC2)CC1 [Compound 80, 4-Cyclohexanecarbonyl-[1,4]diazepane-1-carboxylic acid (4-trifluoromethylsulfanyl-phenyl)-amide] | – | 99 | 12
25 | CC(C)CCC(=O)N1CCCN(C(=O)Nc2ccc(C(C)C)cc2)CC1 [4-(4-Methyl-pentanoyl)-[1,4]diazepane-1-carboxylic acid (4-isopropyl-phenyl)-amide] | agonistic activity | – | –
26 | O=C(Nc1ccc2ccccc2c1)N1CCCN(C(=O)C2CCCCC2)CC1 [Compound 68, 4-Cyclohexanecarbonyl-[1,4]diazepane-1-carboxylic acid naphthalen-2-ylamide] | – | 99 | 26
27 | O=C(CC1CCCC1)N1CCCN(C(=O)Nc2cc(Cl)ccc2Cl)CC1 [4-(2-Cyclopentyl-acetyl)-[1,4]diazepane-1-carboxylic acid (2,5-dichloro-phenyl)-amide] | agonistic activity | – | –
28 | CC(C)(C)c1csc(NC(=O)N2CCCN(C(=O)C3CCOCC3)CC2)n1 [4-(Tetrahydro-pyran-4-carbonyl)-[1,4]diazepane-1-carboxylic acid (4-tert-butyl-thiazol-2-yl)-amide] | agonistic activity | – | –
